Source: US20090105278A1, “Selective inhibitors of human corticosteroid syntheses” (Universitat Des Saarlandes, priority 2004, published 2009)
Counter-ions that a name gives are not always drawn. Like-named read-outs stand apart in the source and are kept apart here.

Assays:
bovine adrenal CYP11B = biological target: T1, bovine adrenal CYP11B (Bos taurus, UniProt P15150); test: Percent inhibition of bovine CYP11B (adrenal mitochondria); details: corticosterone substrate 200 μM, inhibitor 1 μM; for % Inhibition bovine bCYP11B: bovine adrenal mitochondria, 1 mg/ml protein; for inhibition at 1 µM: read-out: % Inhibition bovine bCYP11B, bovine adrenal mitochondria, 1 mg/ml protein
T1 sequence (P15150 25-503): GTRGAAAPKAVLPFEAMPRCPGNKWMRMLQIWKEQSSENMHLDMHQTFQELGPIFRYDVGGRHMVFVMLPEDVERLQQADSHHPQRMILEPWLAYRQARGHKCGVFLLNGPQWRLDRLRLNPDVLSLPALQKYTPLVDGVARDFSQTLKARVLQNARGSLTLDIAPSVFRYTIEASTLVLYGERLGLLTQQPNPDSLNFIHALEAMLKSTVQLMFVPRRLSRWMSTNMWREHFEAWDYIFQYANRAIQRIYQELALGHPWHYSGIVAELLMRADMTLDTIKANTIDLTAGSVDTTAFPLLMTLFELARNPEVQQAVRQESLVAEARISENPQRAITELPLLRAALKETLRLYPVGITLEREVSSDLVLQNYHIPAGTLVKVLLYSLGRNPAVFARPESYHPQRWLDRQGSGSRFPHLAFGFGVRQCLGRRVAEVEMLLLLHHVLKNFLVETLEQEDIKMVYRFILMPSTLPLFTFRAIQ
Description: Bovine adrenal glands obtained freshly after slaughtering were stored in ice cold Tris-sucrose buffer (0.25 M sucrose, 0.05 M Tris; pH 7.4) until processed. After removing the appending adipose tissue, the adrenal medulla was carefully separated from the adrenal cortex using scissors. The pieces of adrenal cortex were coarsely comminuted with scissors, washed with Tris-sucrose buffer, weighed and finely comminuted in the above buffer (2 ml per g of tissue) with a hand mixer. Thereafter, the tissue was homogenized with an Ultra-Turrax mixer. For separating coarse cell debris and the nuclei, the homogenizate was centrifuged twice for 15 min at 900 g and 4° C. The supernatant was subsequently centrifuged for 35 min at 11,000 g for recovering the mitochondrial fraction. For purifying the mitochondrial fraction, the precipitate was resuspended in Tri-sucrose buffer and again centrifuged at 11,000 g for 35 min. This washing step was performed two times in total. After the last centrifugation, the pellet was resuspended in Tris-sucrose buffer containing 0.001 M EDTA and frozen at −70° C.
The substrate corticosterone was dissolved in methanol and diluted with Tris buffer to a final concentration of 200 μM. The inhibitors were also dissolved in methanol and diluted with buffer to a final concentration of 1 μM. […] Corticosterone (200 μM) was incubated with inhibitor (1 μM) and mitochondrial enzyme (0.5 mg/0.5 ml) with the addition of a regenerating system consisting of NADP^+ (1 mM), glucose-6-phosphate (7 mM) and glucose-6-Phosphate dehydrogenase (1 IU/0.5 ml). Up to 5 inhibitors per test could be incubated in duplicate. […] After preincubation for 5 minutes (30° C.; water bath), the reaction was started by adding mitochondrial suspension. […] The blind values were admixed with 250 μl of HCl before the enzyme was pipetted in. The steroids were separated off by shaking with 1 ml of ethyl acetate (10 min). After centrifugation (15,000 g, 10 min), 900 μl of the organic phase was shaken with 250 μl 1 N NaOH (10 min), and 800 μl of supernatant was again washed with 250 μl of buffer. […] 18-OH-corticosterone (retention time: 10 min) and corticosterone (retention time: 21 min) were separated. The height of the 18-OH-corticosterone peak was used for evaluation. The percent inhibition of the 18-hydroxylation of corticosterone by the inhibitors was based on the mediums of the control incubation, taking the blind values into account.

human CYP11B2 = biological target: T2, human CYP11B2 (Homo sapiens, UniProt P19099); test: Screening test in transgenic fission yeast (S. pombe PE1) expressing human CYP11B2; type: cell-based; set-up: expressed in transfected cells
T2 sequence (P19099 25-503): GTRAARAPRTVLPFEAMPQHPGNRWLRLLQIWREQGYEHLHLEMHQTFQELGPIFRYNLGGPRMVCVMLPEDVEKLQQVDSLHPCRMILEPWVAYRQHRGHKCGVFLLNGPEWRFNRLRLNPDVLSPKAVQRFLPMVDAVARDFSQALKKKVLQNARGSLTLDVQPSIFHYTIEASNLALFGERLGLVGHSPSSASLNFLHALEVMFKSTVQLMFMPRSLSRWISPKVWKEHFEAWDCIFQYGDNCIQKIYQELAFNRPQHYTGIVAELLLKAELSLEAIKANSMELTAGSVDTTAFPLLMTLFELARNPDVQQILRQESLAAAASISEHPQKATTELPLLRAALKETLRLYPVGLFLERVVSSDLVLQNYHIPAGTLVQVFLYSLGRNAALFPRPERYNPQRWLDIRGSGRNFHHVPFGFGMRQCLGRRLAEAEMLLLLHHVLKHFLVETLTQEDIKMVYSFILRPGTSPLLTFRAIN
In short: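 Deoxycorticosterone conversion to corticosterone, 18-hydroxycorticosterone and aldosterone assessed after EtOAc extraction by HPTLC with 14C phosphorimaging. Conversion rate calculated from quantified steroid spots.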

CYP11B1 in NCI-H295R = biological target: T3, CYP11B1 in NCI-H295R (Homo sapiens, UniProt P15538); test: cell-based; details: read-out: NCI-H295R CYP11B1 RSS % inhibition
T3 sequence (P15538 25-503): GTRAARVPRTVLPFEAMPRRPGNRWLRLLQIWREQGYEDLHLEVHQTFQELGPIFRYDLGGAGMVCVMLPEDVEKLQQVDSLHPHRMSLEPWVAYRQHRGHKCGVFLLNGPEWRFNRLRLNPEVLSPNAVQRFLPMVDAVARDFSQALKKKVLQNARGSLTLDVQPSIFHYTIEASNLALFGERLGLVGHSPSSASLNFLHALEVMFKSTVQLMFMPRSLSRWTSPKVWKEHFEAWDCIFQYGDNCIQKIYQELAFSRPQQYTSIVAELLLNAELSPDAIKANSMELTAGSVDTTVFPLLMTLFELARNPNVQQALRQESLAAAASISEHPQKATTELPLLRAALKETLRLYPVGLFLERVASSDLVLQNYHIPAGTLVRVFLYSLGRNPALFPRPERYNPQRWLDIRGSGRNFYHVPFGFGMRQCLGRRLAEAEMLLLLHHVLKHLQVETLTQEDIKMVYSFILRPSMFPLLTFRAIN
Description: For testing inhibitors, a preincubation for one hour was performed first, followed by starting the enzyme reactions by adding substrate (500 nM).
A) Seeding: The cell lines were grown and passaged until a confluent cell lawn had formed. By tryptic treatment, the cell material of at least two culture dishes was obtained, and the number of cells determined by means of a CASY TT cell counter (150 μl capillary). […] With the cell material of two confluently grown culture dishes, two 24-well plates could be coated. After 24 hours, the cells had grown on, and after another 24 hours' stimulation phase with a solution containing potassium ions (final concentration: 20 mM KCl), could be employed for the test.
Of this solution, 5 μl each was added to the samples.
Then, the 24-well plate was stored in a CO2 incubator at 37° C. and […]. The incubation time was 3 hours when deoxycorticosterone was used as the substrate, 24 Hours for corticosterone, and 48 hours for deoxycortisol.
Test stop: After elapse of the incubation times, the plates were briefly swung, and then the content of the wells was removed quantitatively if possible and inactivated by mixing with 1000 μl of dichloromethane in a 2 ml Eppendorf vessel. After 10 minutes of shaking, it was centrifuged for phase separation, and the […], organic phase was transferred into a 1.5 ml Eppendorf vessel. […]

[1] = S. pombe cells which express human CYP11B2, deoxycorticosterone substrate 100 nM, inhibitor 500 nM
[2] = S. pombe cells which express human CYP11B2, deoxycorticosterone substrate 100 nM, inhibitor 500 nM, read-out: % Inhibition human hCYP11B2

Row | Compound | inhibition at 0.5 µM (human CYP11B2; [2]) [%] | melting point [°C] | further results
1 | 5-[(E)-(6-Chloro-3,4-dihydronaphth-1(2H)-ylidene)methyl]-1H-imidazolium chloride [Compound 46a] |  |  | % Inhibition bovine bCYP11B (bovine adrenal CYP11B): 66%; % Inhibition human hCYP11B2 (human CYP11B2; [1]): 48%
2 | 5-[(Z)-3,4-Dihydronaphth-1(2H)-ylidenemethyl]-1H-imidazolium oxalate [Compound 41b] |  |  | % Inhibition bovine bCYP11B (bovine adrenal CYP11B): 95%; % Inhibition human hCYP11B2 (human CYP11B2; [1]): 82%
3 | 5-[(Z)-(5-Bromo-2,3-dihydro-1H-indene-1-ylidene)methyl]-1H-imidazolium oxalate [Compound 49b] |  |  | % Inhibition bovine bCYP11B (bovine adrenal CYP11B): 88%; % Inhibition human hCYP11B2 (human CYP11B2; [1]): 76%
4 | 5-[(Z)-(5-Chloro-2,3-dihydro-1H-indene-1-ylidene)methyl]-1H-imidazolium oxalate [Compound 48b] |  |  | % Inhibition bovine bCYP11B (bovine adrenal CYP11B): 87%; % Inhibition human hCYP11B2 (human CYP11B2; [1]): 80%
5 | C(=C1/CCCc2ccccc21)/c1cccnc1.Cl [Compound 3a, 3-[(E)-3,4-Dihydronaphthalene-1(2H)-ylidenemethyl]pyridine Hydrochloride] | 70 | 209 | 
6 | C(=C1\CCCc2ccccc21)/c1cccnc1.Cl [Compound 3b, 3-[(Z)-3,4-Dihydronaphthalene-1(2H)-ylidenemethyl]pyridine Hydrochloride] | 68 | 206 | 
7 | Fc1ccc2c(c1)CC/C2=C/c1cccnc1 [Compound 5b, 3-[(Z)-(5-Fluoro-2,3-dihydro-1H-indane-1-ylidene)methyl]pyridine Hydrochloride] |  |  | inhibition at 2.5 µM (CYP11B1 in NCI-H295R): 73.1%; inhibition at 0.5 µM (human CYP11B2; read-out: % Inhibition human hCYP11B2): 89%; inhibition at 0.5 µM (human CYP11B2; read-out: S. pombe PE1 CYP11B2 DOC % inhibition): 88.6%
8 | COc1ccc2c(c1)CCC/C2=C/c1cccnc1.Cl [Compound 13b, 3-[(Z)-(6-Methoxy-3,4-dihydronaphthalene-1(2H)-ylidene)methyl]pyridine Hydrochloride] | 53 | 151 | 
9 | Clc1cccc2c1CC/C2=C/c1cccnc1 [Compound 25b, 3-[(Z)-(4-Chloro-2,3-dihydro-1H-indane-1-ylidene)methyl]pyridine Hydrochloride] | 83 |  | 
10 | COc1cccc2c1/C(=C/c1cccnc1)CC2 [Compound 26a, 3-[(E)-(7-Methoxy-2,3-dihydro-1H-indane-1-ylidene)methyl]pyridine Hydrochloride] | 76 |  | 
11 | Fc1ccc2c(c1)CC/C2=C\c1cncnc1 [Compound 28a, 5-[(E)-(5-Fluoro-2,3-dihydro-1H-indane-1-ylidene)methyl]pyrimidine Hydrochloride] | 72 |  | 
12 | Fc1ccc2c(c1)CC/C2=C\c1cccc2cnccc12 [Compound 30a, 5-[(E)-(5-Fluoro-2,3-dihydro-1H-indane-1-ylidene)methyl]isoquinoline Hydrochloride] | 60 |  | 
13 | Fc1ccc2c(c1)CC/C2=C/c1cccc2cnccc12 [Compound 30b, 5-[(Z)-(5-Fluoro-2,3-dihydro-1H-indane-1-ylidene)methyl]isoquinoline Hydrochloride] | 91 |  | 
14 | C(=C1/CCCc2ccccc21)/c1cnc[nH]1 [Compound 41a, 5-[(E)-3,4-Dihydronaphth-1(2H)-ylidenemethyl]-1H-imidazole] | 80 | 136 to 138 | inhibition at 1 µM (bovine adrenal CYP11B): 40%
15 | C(=C1/CCc2ccccc21)/c1cnc[nH]1 [Compound 42a, 5-[(E)-2,3-Dihydro-1H-indane-1-ylidenemethyl]-1H-imidazole] | 77 |  | inhibition at 1 µM (bovine adrenal CYP11B): 62%
16 | C(=C1\CCc2ccccc21)/c1cnc[nH]1 [Compound 42b, 5-[(Z)-2,3-Dihydro-1H-ind-1-ylidenemethyl]-1H-imidazolium oxalate] | 81 |  | % Inhibition bovine bCYP11B (bovine adrenal CYP11B): 94%; inhibition at 1 µM (bovine adrenal CYP11B): ~90%
17 | Cl.Clc1ccc2c(c1)CC/C2=C\c1cnc[nH]1 [Compound 48a, 5-[(E)-(5-Chloro-2,3-dihydro-1H-indene-1-ylidene)methyl]-1H-imidazolium chloride] | 79 | 238 | inhibition at 1 µM (bovine adrenal CYP11B): 45%
18 | Brc1ccc2c(c1)CC/C2=C\c1cnc[nH]1.Cl [Compound 49a, 5-[(E)-(5-Bromo-2,3-dihydro-1H-indene-1-ylidene)methyl]-1H-imidazolium chloride] | 68 | 228 | inhibition at 1 µM (bovine adrenal CYP11B): 63%
